According to patent US10494364B2, “Cathepsin K inhibitors and application thereof” (SUNSHINE LAKE PHARMA CO., LTD., priority 2015, dated 2019):

Assays:
Type in all cases: biochemical
[1] = target: human cathepsin L (Homo sapiens, UniProt P07711); assay: Assay of cathepsin L inhibitory activity in vitro; settings: IC50 against human cathepsin L; substrate Z-Phe-Arg-AMC 10 μM; 25° C.; read-out: Cat-L
Protocol: Assay Method of Cathepsin L Inhibitory Activity In Vitro
0.01 ng/μL was the final concentration of Cathepsin L in the enzyme reaction, and Z-Phe-Arg-AMC with the final concentration of 10 μM was added into the reaction system as substrate, in the reaction system the test compound and enzyme had been incubated at 25° C. for 15 min.

[2] = target: human cathepsin B (Homo sapiens, UniProt P07858); assay: Assay of cathepsin B inhibitory activity in vitro; settings: IC50 against human cathepsin B; substrate Z-Phe-Arg-AMC 10 μM; 25° C.; read-out: Cat-B
Protocol: Assay Method of Cathepsin B Inhibitory Activity In Vitro
0.01 ng/μL was the final concentration of Cathepsin B in the enzyme reaction, and Z-Phe-Arg-AMC with the final concentration of 10 μM was added into the reaction system as substrate, in the reaction system the test compound and enzyme had been incubated at 25° C. for 15 min.

[3] = target: T1, human cathepsin K (Homo sapiens, UniProt P43235); assay: Assay of cathepsin K inhibitory activity in vitro; settings: IC50 against human cathepsin K; substrate Z-Phe-Arg-AMC 10 μM; 25° C.; read-out: Cat-K
T1 sequence (P43235 115-329): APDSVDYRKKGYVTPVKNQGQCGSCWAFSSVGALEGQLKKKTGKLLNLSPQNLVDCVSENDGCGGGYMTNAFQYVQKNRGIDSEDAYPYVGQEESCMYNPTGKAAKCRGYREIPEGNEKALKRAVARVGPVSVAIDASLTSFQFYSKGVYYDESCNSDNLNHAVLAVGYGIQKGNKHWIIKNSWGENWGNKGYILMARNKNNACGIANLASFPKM
Protocol: Assay Method of Cathepsin K Inhibitory Activity In Vitro
Using 45000-fold diluted cathepsin K solution and 10 μM Z-Phe-Arg-AMC as substrate, the test compound and cathepsin K solution were incubated at 25° C. for 15 min in a 15 μL reaction system according to the optimized experimental condition.

[4] = target: human cathepsin S (Homo sapiens, UniProt P25774); assay: Assay of cathepsin S inhibitory activity in vitro; settings: IC50 against human cathepsin S; substrate Z-VVR-AMC 20 μM; 25° C.; read-out: Cat-S
Protocol: Assay Method of Cathepsin S Inhibitory Activity In Vitro
0.25 ng/L was the final concentration of Cathepsin S in the enzyme reaction, and Z-VVR-AMC with the final concentration of 20 μM was added into the reaction system as substrate, in the reaction system the test compound and enzyme had been incubated at 25° C. for 15 min.

Chain of human cathepsin L (P07711 114-333): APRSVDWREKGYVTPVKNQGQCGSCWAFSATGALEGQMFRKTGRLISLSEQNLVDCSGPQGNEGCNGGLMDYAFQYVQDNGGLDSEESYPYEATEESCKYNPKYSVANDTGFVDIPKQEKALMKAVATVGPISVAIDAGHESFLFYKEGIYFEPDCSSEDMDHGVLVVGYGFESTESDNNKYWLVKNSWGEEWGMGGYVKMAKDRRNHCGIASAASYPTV
Chain of human cathepsin S (P25774 115-331): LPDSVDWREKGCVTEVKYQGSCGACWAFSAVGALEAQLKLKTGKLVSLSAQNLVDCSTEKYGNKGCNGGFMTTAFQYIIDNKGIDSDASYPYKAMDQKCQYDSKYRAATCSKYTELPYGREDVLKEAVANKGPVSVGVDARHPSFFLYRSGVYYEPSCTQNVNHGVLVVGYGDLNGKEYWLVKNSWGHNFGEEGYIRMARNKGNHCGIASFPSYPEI

| IC50 [1] [nM] | IC50 [2] [nM] | IC50 [3] [nM] | IC50 [4] [nM] | Compound |
| --- | --- | --- | --- | --- |
| > 10000 | > 10000 | 1.3 | 416 | N#CC1(NC(=O)C2(NC(=O)c3cc4ccc(-c5csc(-n6cncn6)n5)cc4o3)CCC(F)(F)CC2)CC1 [Example 57, 6-(2-(1H-1,2,4-triazol-1-yl)thiazol-4-yl)-N-(1-((1-cyanocyclopropyl)carbamoyl)-4,4-difluorocyclohexyl)benzofuran-2-carboxamide] |
| > 10000 | 423 | 1.26 | > 10000 | N#CC1(NC(=O)C2(NC(=O)c3cc4ccc(-c5ccc(-n6cncn6)cc5)cc4o3)CCCCCC2)CC1 [Example 61] |
| > 10000 | 880 | 1.37 | 4000 | CS(=O)(=O)c1ccc(-c2ccc3cc(C(=O)NC4(C(=O)NC5(C#N)CC5)CCCCC4)oc3c2)cc1 [Example 62] |
| > 10000 | 1200 | 1.6 | > 10000 | N#CC1(NC(=O)C2(NC(=O)c3cc4ccc(-c5csc(N6CCCC6=O)n5)cc4o3)CCCCC2)CC1 [Example 63] |
| > 10000 | 373 | 0.88 | 637 | CS(=O)(=O)c1cccc(-c2ccc3cc(C(=O)NC4(C(=O)NC5(C#N)CC5)CCCCC4)oc3c2)c1 [Example 64] |
| > 10000 | 697 | 1.3 | > 10000 | N#CC1(NC(=O)C2(NC(=O)c3cc4ccc(-c5csc(N6CCNC6=O)n5)cc4o3)CCCCC2)CC1 [Example 65] |
| > 10000 | 540 | 0.81 | 969 | CS(=O)(=O)c1nc(-c2ccc3cc(C(=O)NC4(C(=O)NC5(C#N)CC5)CCCCC4)oc3c2)cs1 [Example 66] |
| > 10000 | 540 | 0.64 | 990 | N#CC1(NC(=O)C2(NC(=O)c3cc4ccc(-c5csc(N6CCS(=O)(=O)CC6)n5)cc4o3)CCCCC2)CC1 [Example 67] |
| > 10000 | 360 | 0.79 | 4080 | N#CC1(NC(=O)C2(NC(=O)c3cc4ccc(-c5csc(N6CCOC6=O)n5)cc4o3)CCCCC2)CC1 [Example 68] |
| > 10000 | 530 | 8.6 | 5060 | CS(=O)(=O)c1ccc(-c2ccc3cc(C(=O)NC4(C(=O)NC5(C#N)CC5)CCCC4)oc3c2)cc1 [Example 70] |
| > 10000 | 290 | 2.1 | > 10000 | COC1(c2ccc(-c3ccc4cc(C(=O)NC5(C(=O)NC6(C#N)CC6)CCCCC5)oc4c3)cc2)COC1 [Example 71] |
| > 10000 | 727 | 0.5 | > 10000 | N#CC1(NC(=O)C2(NC(=O)c3cc4ccc(-c5ccc(C6(O)COC6)cc5)cc4o3)CCCCC2)CC1 [Example 72] |
| > 10000 | 1120 | 3.04 | > 10000 | N#CC1(NC(=O)C2(NC(=O)c3cc4ccc(-c5ccc(C6(F)COC6)cc5)cc4o3)CCCCC2)CC1 [Example 73] |
| > 10000 | 490 | 1.83 | 4100 | N#CC1(NC(=O)C2(NC(=O)c3cc4ccc(-c5ccc(C6(O)CCOCC6)cc5)cc4o3)CCCCC2)CC1 [Example 75] |
| > 10000 | 120 | 0.55 | 340 | N#CC1(NC(=O)C2(NC(=O)c3cc4ccc(-c5ccc(C6(O)CCS(=O)(=O)CC6)cc5)cc4o3)CCCCC2)CC1 [Example 76] |
| ≥ 10000 | 178 | 0.67 | 1050 | N#CC1(NC(=O)C2(NC(=O)c3cc4ccc(-c5ccc(C6(O)COC6)nc5)cc4o3)CCCCC2)CC1 [Example 77] |
| ≥ 10000 | 282 | 0.95 | 2070 | N#CC1(NC(=O)C2(NC(=O)c3cc4ccc(-c5csc(C6(O)COC6)n5)cc4o3)CCCCC2)CC1 [Example 78] |
